In one assay the target is T1, PARP15 (Homo sapiens, UniProt Q460N3).
T1 construct: made in house; host or cells: Sf9
T1 sequence (Q460N3 481-678): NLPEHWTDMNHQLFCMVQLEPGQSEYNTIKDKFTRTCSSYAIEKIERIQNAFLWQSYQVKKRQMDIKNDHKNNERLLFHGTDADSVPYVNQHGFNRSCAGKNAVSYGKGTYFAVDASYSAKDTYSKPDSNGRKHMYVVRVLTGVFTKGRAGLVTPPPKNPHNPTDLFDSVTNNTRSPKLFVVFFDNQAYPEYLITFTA
As to the kind of experiment: In vitro TR-FRET probe displacement assay (Probe C), PARP15. In kind it is binding. Particulars: TR-FRET displacement of Probe C, PARP15 residues 481-678. How it is done: A portion of PARP15 (residues 481 to 678 of NP_689828.1 (SEQ ID NO: 5), GenBank Accession No. NM_152615) was overexpressed in Sf9 cells. An N-terminal fusion tag, […] (SEQ ID NO: 10), was used to purify the protein from cell lysates. The fusion tag was left on the protein for use in the probe displacement assay.
(§1) Displacement of a Probe C binding to monoPARP active sites was measured using a time-resolved fluorescence resonance energy transfer (TR-FRET) assay. 20 nL of a dose response curve of each test compound was spotted in black 384-well polystyrene proxiplates (Perkin Elmer) using a Mosquito (TTP Labtech). Reactions were performed in a 8 μL volume by adding 6 μL of the monoPARP and Probe C in assay buffer (20 mM HEPES pH=8, 100 mM NaCl, 0.1% bovine serum albumin, 2 mM DTT and 0.002% Tween20), incubating with test compound at 25° C. for 30 min, then adding 2 μL of ULight-streptavidin and LANCE Eu-W 1024 Anti-6×His (Perkin Elmer). Binding reactions were equilibrated at 25° C. for an additional 30 min, then read on an Envision platereader equipped with a LANCE/DELFIA top mirror (Perkin Elmer) using excitation of 320 nm and emission of 615 nm and […] with a 90 μs delay. The ratio of the 665/615 nm emission were calculated for each well to determine the amount of complex of monoPARP and Probe C in each well. […]

Another assay deals with T2, PARP16 (Homo sapiens, UniProt Q8N5Y8).
T2 construct: made in house; host or cells: E. coli
T2 sequence (Q8N5Y8 5-279 isoform Q8N5Y8-3): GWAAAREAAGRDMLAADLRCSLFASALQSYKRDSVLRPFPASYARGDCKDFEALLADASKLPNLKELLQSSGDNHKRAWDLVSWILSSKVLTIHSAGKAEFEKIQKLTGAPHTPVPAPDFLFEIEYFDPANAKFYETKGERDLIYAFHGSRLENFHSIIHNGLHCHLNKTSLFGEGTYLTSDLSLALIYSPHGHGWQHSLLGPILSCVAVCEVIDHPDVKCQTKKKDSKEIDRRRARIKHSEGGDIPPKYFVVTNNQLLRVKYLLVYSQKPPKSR
As to the kind of experiment: In vitro TR-FRET probe displacement assay (Probe C), PARP16. The assay is classed as binding. The note with it: TR-FRET displacement of Probe C, PARP16 residues 5-279. How it is done:
A portion of PARP16 (residues 5 to 279 of NP_060321.3 (SEQ ID NO: 6), GenBank Accession No. NM_017851) was overexpressed in E. coli cells. An N-terminal fusion tag, […] (SEQ ID NO: 9), was used to purify the protein from cell lysates. The fusion tag was left on the protein for use in the probe displacement assay.
as §1, with “performed in an 8 μL” for “performed in a 8 μL”, “μL of ULight-anti 6×His and LANCE” for “μL of ULight-streptavidin and LANCE”, “Eu-W 1024 labeled streptavidin (Perkin Elmer).” for “Eu-W 1024 Anti-6×His (Perkin Elmer).”

In the case of `O=c1[nH]ncc(N2Cc3ccc(OC4CCNCC4)cc3C2)c1C(F)(F)F` [Compound A, 5-[5-(Piperidin-4-yloxy)-2,3-dihydro-1H-isoindol-2-yl]-4-(trifluoromethyl)-2,3-dihydropyridazin-3-one], the IC50 at PARP15 was 60 nM; on PARP16 it was 100 nM.

These data come from patent US11293927B2, “Screening methods for PARP modulators” (Ribon Therapeutics, Inc., priority 2018, dated 2022).
